Assay results from patent publication US9314497B2, “E2F as a target of hormone refractory prostate cancer” (RUTGERS, THE STATE UNIVERSITY OF NEW JERSEY, priority 2009, dated 2016).
Read-outs that look alike come from different tables or passages of the source. Where no end group is shown, it is not given here.

Key:
[1] = test system: normal human CD34 positive cells containing hematopoeitic progenitors (HSC); settings: 24 h exposure
tumor cell lines [2] = test system: tumor cell lines
tumor cell lines [3] = test: Cell viability after 24 h treatment (Vi-CELL automated cell counter); settings: RPMI media and 10% fetal calf serum
[4] = Tolerability in tumor-bearing nude mice; format: in vivo; settings: 60 mg/kg dose; all animals recovered quickly
Procedure: (§1) Nude mice bearing the H-69 small cell carcinoma xenografts were treated with PEP-2 encapsulated in PEGylated liposomes as previously described. Female mice (20-22 g) were inoculated […] with 10 million tumor cells suspended in 50 uL of PBS and an equal volume of matrigel. When the tumors were approximately 50 mm 3, the animals were randomized into groups of 6 and either treated with 0.06 ml of empty PEGylated liposomes, or 0.03 ml of PEGylated liposomes (30 mg/kg of PEP-2) or 0.06 ml of PEGylated liposomes (60 mg/kg of PEP-2), every 4 days. Tumor size (FIG. 10) and animal weight (FIG. 11) was measured every three days. […] Treatment of mice bearing advanced Tumors (FIG. 12) and mice with advanced tumors tolerate the encapsulated PEP-2 liposome treatment (FIG. 13).

[5] = test system: H-69 small cell carcinoma xenografts; test: H-69 xenograft tumor size in nude mice; format: in vivo; settings: 30 or 60 mg/kg of PEP-2 in PEGylated liposomes, every 4 days
Procedure: as §1

In the case of `CC[C@H](C)[C@H](NC(=O)[C@H](CCCCN)NC(=O)[C@@H](NC(=O)[C@H](CCC(N)=O)NC(=O)[C@@H](N)CCCNC(=N)N)[C@@H](C)CC)C(=O)N[C@@H](Cc1c[nH]c2ccccc12)C(=O)N[C@@H](Cc1ccccc1)C(=O)N[C@@H](CCC(N)=O)C(=O)N[C@@H](CC(N)=O)C(=O)N[C@@H](CCCNC(=N)N)C(=O)N[C@@H](CCCNC(=N)N)C(=O)N[C@@H](CCSC)C(=O)N[C@@H](CCCCN)C(=O)N[C@@H](Cc1c[nH]c2ccccc12)C(=O)N[C@@H](CCCCN)C(=O)N[C@@H](CCCCN)C(=O)N[C@@H](Cc1c[nH]cn1)C(=O)N[C@@H](Cc1c[nH]cn1)C(=O)N[C@@H](Cc1c[nH]cn1)C(=O)N[C@@H](CCCNC(=N)N)C(=O)N[C@@H](CC(C)C)C(=O)N[C@@H](CO)C(=O)N[C@@H](Cc1c[nH]cn1)C(=O)O` [SEQ ID NO: 3], the IC50 [1] is reported as > 80 µM and the “growth inhibition / cytotoxicity in tumor cell lines” value (shortened to “growth inhibition / cytotoxicity”) (tumor cell lines [2]) is reported as “cytotoxic to most, but not all, tumor cell lines”.
With `CC[C@H](C)[C@H](NC(=O)[C@H](CCCCN)NC(=O)[C@@H](NC(=O)[C@H](CCC(N)=O)NC(=O)[C@@H](N)CCCNC(=N)N)[C@@H](C)CC)C(=O)N[C@@H](Cc1c[nH]c2ccccc12)C(=O)N[C@@H](Cc1ccccc1)C(=O)N[C@@H](CCC(N)=O)C(=O)N[C@@H](CC(N)=O)C(=O)N[C@@H](CCCNC(=N)N)C(=O)N[C@@H](CCCNC(=N)N)C(=O)N[C@@H](CCSC)C(=O)N[C@@H](CCCCN)C(=O)N[C@@H](Cc1c[nH]c2ccccc12)C(=O)N[C@@H](CCCCN)C(=O)N[C@@H](CCCCN)C(=O)N[C@@H](C)C(=O)N[C@@H](C)C(=O)N[C@@H](C)C(=O)N[C@H](C(=O)N[C@@H](CC(C)C)C(=O)N[C@@H](CO)C(=O)N[C@@H](C)C(=O)O)C(C)C` [SEQ ID NO: 19, reference compound] the “growth inhibition / cytotoxicity” value (tumor cell lines [2]) was “little or no effect on cell growth”.
With HHHRLSH [SEQ ID NO: 1, HHHRLSH] the “growth inhibition / cytotoxicity” value (tumor cell lines [3]) was “did not inhibit growth”.
For “RQIKIWFQNRRIKWKKHHHRLSH (penetratin) [SEQ ID NO: 34]”, the acute adverse effect [4] was “acute transient distress” and the tumor size [5] was “Decreases the Size of Tumors”.
